Data as given in patent US11046647B2, “Activators of the unfolded protein response” (The Board of Trustees of the University of Illinois, priority 2018, dated 2021).

How the values were obtained:
Type in all cases: cell-based, human
MCF-7 cells [1] = assay: Alamar Blue/raptinal 24-hour cell death assay, MCF-7; details: for IC50: 24-hour incubation, Alamar blue fluorescence, normalized to vehicle and raptinal
Description: FIG. 4. […] MCF7 (ERα) cells, 24 hour incubation, read out via Alamar Blue Fluorescence, Dead Control: Raptinal, n=3 (A, B). […] Orthotopic Mouse Xenograft breast cancers of TYS cells, Visualization by bioluminescent imaging. Treatment: 40 mg/kg daily (−)-105 for 3 days either by oral gavage or by intraperitoneal injection.
ALAMAR BLUE/RAPTINAL ASSAY: Live cells maintain a reducing environment. The non-fluorescent cell permeable ingredient of Alamar Blue® (resazurin) is taken up by cells. In living cells, it is reduced to the fluorescent compound resorufin. Using a standard curve of cell number versus fluorescence the number of live cells in a test sample can be determined. At high concentrations raptinal kills 100% of cells. The vehicle in which the test compound is dissolved is not toxic. Thus, after subtracting the blank for medium alone, the fluorescence reading for vehicle corresponds to 100% viable cells and the signal for raptinal corresponds to 0% viable cells. While this assay provides a less direct measurement of cell death than the trypan blue assay, it is more easily scaled up to large numbers of samples.
ALAMAR BLUE RAPTINAL ASSAYS: Cells were plated at 4,000-10,000 cells/well (96 well plate), usually in 50 μl of medium. After about 18 hours, an additional 50 μl of medium containing 2× the desired final concentration of the test compound (C-105) was added to each well. After 24 hours Alamar Blue reagent was added and fluorescence in the wells was read (BMG PheraStar or Molecular Devices Spectra Max M3 Microplate Reader). % relative death was determined by setting the reading for raptinal-treated cells to 100% dead cells and the reading for vehicle-treated cells to 0% dead cells.
Preparative gram-scale chiral separation of (±)-1 yields enantiopure (R)-1 and (S)-1 with opposite optical rotations (Scheme 5). […] Values were obtained after 24-hour incubation utilizing Alamar blue fluorescence assay normalized to live and death controls (vehicle and raptinal treated). (S)-1 IC50 is >1 μM. Error shown as S.E.M.

MCF-7 cells [2] = assay: Dose-dependent death of MCF-7 cells (FIG. 10)
TDG cells = assay: Trypan Blue exclusion cell death assay, TDG / TDG-Luc; details: 24 hours
Description: (§1) TRYPAN BLUE: For decades, viable cells have been measured by their ability to exclude the dye Trypan Blue. […] Dead cells, which have lost membrane integrity, take up the dye and are blue. Thus, the percentage of dead cells is the percentage of cells that are Trypan Blue positive out of the total cell population. Quantitative assessment of Trypan Blue uptake uses a cell counter from Fisher. Since the assay is instrument based, there is no observer bias in determining the percentage of Trypan Blue positive cells.
(§2) TRYPAN BLUE ASSAYS: Assays are performed on cells in 6 well plates: 300,000 cells are plated in each well of a 6-well plate in 3 ml of medium. After 24 hours, the DMSO vehicle or the indicated compound is added (in 1000th of the vol.) The cells incubated for an additional 24 hours, and then harvested in 0.25 ml of trypsin, followed after harvest by 0.75 ml of medium. The cells are spun down and resuspended in 100-200 μl of medium left that is over the cell pellet (resuspend cells by pipetting up and down a few times). Add 10 μl to 10 μl of trypan blue. Then 10 μl is inserted into the counting slide. After inserting the slide into the Fisher TC20 counting is automatic (these many cells are needed because an accurate ratio of Trypan Blue positive to Trypan Blue negative cells requires about 200 cells in the field the instrument counts).
The Trypan Blue cell death assay was used to evaluate the ability of the active enantiomer of C-105 [(−)-105] to kill ERα positive TDG-Luc cells. For all studies, 300,000 TDG-Luc cells/well in 10% FBS were plated in a 6-well plate in triplicate. 24 hours after plating, the indicated concentrations the active enantiomer of (−)-105, or BHPI (top) ICI, or OHT (Lower left) or (+)-105 (lower right) were added. After 24 hours, the cells were harvested, and the % dead cells was determined by automated Trypan Blue exclusion using the Countess II automated hemocytometer. Percentage of viable cells was calculated by doing 100-(Cell Death %). (n=3±SEM).
TDG cells were incubated for 24 hours with 75 nM of BHPI or 75 nM of each of the indicated test compounds: 4, 6 and (±)-105 (enantiomers not separated). Cell death was determined using the instrument-based Trypan Blue exclusion assay. Structures are in the Synthesis section. […] (n=3±SEM).

TYS cells = assay: Trypan Blue exclusion cell death assay, TYS / TYS-Luc; details: 24 hours
Description: as §1, §2
The Trypan Blue cell death assay was used to evaluate the ability of the active enantiomer of 105 (−) [(−)-105] to kill ERα positive MCF-7 and TYS-Luc, human breast cancer cells. 300,000 T47D cells/well in 10% FBS were plated in a 6-well plate in triplicate. 24 hours after plating, the indicated concentrations of BHPI, or the active enantiomer 105 (−) of C-105 [(−)-105] was added. After 24 hours, the cells were harvested, and the % dead cells was determined by automated Trypan Blue exclusion using the Countess II automated hemocytometer. Percentage of viable cells was calculated by doing 100-(Cell Death %). (n=3±SEM).
TYS cells were incubated for 24 hours with 35 nM of BHPI or 35 nM of each of the indicated test compounds: 2, 4, and 105. Cell death was determined using the instrument-based Trypan Blue exclusion assay.
TYS cells were incubated for 24 hours with 50 nM of BHPI or 50 nM of each of the indicated test compounds: 4, 6 and 105. Cell death was determined using the instrument-based Trypan Blue exclusion assay. (n=3±SEM).

T47D cells = assay: Trypan Blue exclusion cell death assay, T47D / T47D-Luc; details: 24 hours
Description: as §1
as §2, with “After inserting the slide into the Fisher TC20 counting is automatic (these many cells are needed because an accurate ratio of Trypan Blue positive to Trypan Blue negative cells requires about 200 cells in the field the instrument counts).” left out
The Trypan Blue cell death assay was used to compare the ability of the active (−) enantiomer of C-105 and BHPI to kill estrogen receptor α (ERα) positive T47D, human breast cancer cells expressing luciferase (T47D-Luc cells). […] After 24 hours, the cells were harvested, and the % dead cells was determined by automated Trypan Blue exclusion using the Countess II automated hemocytometer. Percentage of viable cells was calculated by doing 100-(Cell Death %). […]
T47D cells were incubated for 24 hours with 75 nM of BHPI or 75 nM of each of the indicated test compounds: 4 and 6. Cell death was determined using the instrument-based Trypan Blue exclusion assay. […]
T47D cells were treated for 24 hours with 100 nM BHPI, or with 100 nM of each of the test compounds: 6, 8, and 105. […] Cell death was determined using the instrument-based Trypan Blue exclusion assay. […]

| SMILES | IC50 (MCF-7 cells [1]; Homo sapiens, MCF7) | cell death (MCF-7 cells [2]) | ability to kill TDG cells compared to BHPI (TDG cells; 75 nM) | ability to kill TYS cells compared to BHPI (TYS cells; 35 nM) | ability to kill TYS cells compared to BHPI (TYS cells; 50 nM) | ability to kill T47D cells compared to BHPI (T47D cells; 100 nM) | IC50 (MCF-7 cells [1]; listed as (R)-1) | ability to kill compared with BHPI and 01-15 (FIG. 4B) (MCF-7 cells [1]; 24 hour incubation, dead control raptinal) | killing of TDG-Luc cells, dose response (TDG cells; TDG-Luc) | killing of TYS-Luc cells, dose response (TYS cells; TYS-Luc) | killing of T47D cells, dose response (T47D cells; T47D-Luc) |
| --- | --- | --- | --- | --- | --- | --- | --- | --- | --- | --- | --- |
| O=C1Nc2c(C(F)(F)F)cccc2C1(c1ccc(O)cc1)c1ccc(OC(F)(F)F)cc1 (racemic) [(±)-105, 3-(4-hydroxyphenyl)-3-(4-(trifluoromethoxy)phenyl)-7-(trifluoromethyl)indolin-2-one] | 42.6 nM | inactive | greatly increased ability to kill | greatly increased ability to kill | increased ability to kill | increased ability to kill | – | – | – | – | – |
| O=C1Nc2c(C(F)(F)F)cccc2C1(c1ccc(O)cc1)c1ccc(OC(F)(F)F)cc1 (single isomer, unassigned; (-)) [(−)-105, 3-(4-hydroxyphenyl)-3-(4-(trifluoromethoxy)phenyl)-7-(trifluoromethyl)indolin-2-one] | – | induces dose-dependent death | – | – | – | – | 20.3 nM | superior to BHPI and 01-15 | superior to BHPI and current endocrine therapies | superior to BHPI | superior to BHPI |
